Test results reported in US10201558B2, “Compositions of selenoorganic compounds and methods of use thereof” (Alltech, Inc., priority 2014, dated 2019).
Entries after “also recorded” stand apart in the source; their conditions may differ.

What was measured:
PSEN1 = assay: Western blot of PSEN1 protein in IMR-32 cells; assay type: cell-based, human; details: 150 ppb, 24 hours
Procedure: IMR-32 cells were seeded on 6-well plates and then treated with control and various compounds for 6 hours and 24 hours, as described above. After treatments, cells were rinsed with ice-cold PBS and lysed in ice-cold RIPA buffer containing complete proteinase and phosphatase inhibitors (Thermo-Fisher Scientific, Waltham, Mass.) on ice for 30 min Cell lysates were collected using a cell scraper and transfer pipette and then centrifuged at 12000×g for 30 min at 4° C. to remove the DNA pellet and obtain the protein extract. Protein levels in the supernatant of these cell lysates were determined using the Pierce Micro-BCA protein assay kit (Thermo Scientific-Piece Biotechnology, Rockford, Ill.) according to the manufacturer's protocol […]
Positive signals on the membrane blots were detected using Amersham's enhanced chemiluminescence (ECL) Western Blotting Prime Detection reagents (GE healthcare Lifescience, Pittsburgh, Pa.). Images of these luminescence signals on the membrane blots were captured using the LI-COR Odyssey Fc Image system (Lincoln, Nebr.). […] Protein band densities in the Western blots were determined using the Li—COR Image studio software or NIH ImageJ software, and then normalized by ACTB protein level in each sample. […]

BACE1 = assay: Western blot of BACE1 in APP/PS1 mouse brains; assay type: in vivo; details: APP/PS1 mice, Compound C diet vs control diet
Procedure: Male APPΔNLh/ΔNLh×PS1P246 L/246 L knock-in model mice of Alzheimer's disease (abbreviated APP/PS1) were genotyped using standard primers for human APP (Amyloid Precursor Protein) and human PS1 (PSEN1). These APP/PS1 mice starting at the age of 6 months, were fed either a control diet containing normal levels of selenium (0.3 ppm from plant and inorganic selenium salt sources) or an experimental diet containing Compound C (the control diet to which was added 1 ppm Se from Compound C) for 6 months. […]
Frozen hemispheres of control- and Compound C-treated APP/PS1 mice were weighed and homogenized in PBS buffer, and then subsequently extracted with RIPA buffer (Sigma) containing complete proteinase and phosphatase inhibitors (Fisher Scientific). Protein levels in the samples were determined by micro-BCA protein analysis according to the manufacturer's protocol. […] Positive signals on the membrane blots were detected using Amersham's enhanced chemiluminescence Western Blotting Prime Detection reagents (GE healthcare Lifescience, Pittsburgh, Pa.). Images of these luminescence signals on the membrane blots were captured using the LI-COR Odyssey Fc Image system (Lincoln, Nebr.). Protein band densities in Western blots were determined using NIH Image J software, and then normalized by Actb levels in each samples to obtain the protein levels.

[1] = system: NOTCH signaling molecules in IMR-32 cells; assay: QRT-PCR of key NOTCH signaling molecules in IMR-32 cells; assay type: cell-based, human; details: 150 ppb; for HER2 mRNA expression (mean ± sem) / HES1 mRNA expression (mean ± sem) / HEY1 mRNA expression (mean ± sem) / NFKB1 mRNA expression (mean ± sem) / NFKB2 mRNA expression (mean ± sem) / NOTCH 1 mRNA expression (mean ± sem) / NOTCH 2 mRNA expression (mean ± sem) / NOTCH 3 mRNA expression (mean ± sem) / RBPJ mRNA expression (mean ± sem): control 100
Procedure: QRT-PCR analysis of several Notch signaling molecules was performed in IMR-32 cells to test if Compound C is toxic to the Notch signaling in vitro. In brief, IMR-32 cells were treated with a water control and 150 ppb Compound C in 10% FBS containing MEM media for 6 hours, 24 hours, and 48 hours. These molecules were selected based on the IPA GO search.

Q: For C[Se]C[C@H]1O[C@@H](n2cnc3c(N)ncnc32)C(O)C1O (stereo in doubt) [Compound C, 5′-deoxy-5′-methylselenoadenosine], which PSEN1 protein levels (PSEN1) is on record?
A: Its PSEN1 protein levels is “significant reduction”.

Q: What about the “BACE-1 protein levels in the brains” value (BACE1) of the same molecule?
A: The value was “reduced; also recorded: decreased”.

Q: And the “NOTCH 4 mRNA expression” value ([1]; 6 hours treatment (cell spans control and #C))?
A: Its value is “Undetected”.

Q: What about the “HER2 mRNA expression (mean ± sem)” value ([1]; 6 hours treatment) of the same molecule?
A: The value was 96 ± 4 (4).

Q: What about the “HES1 mRNA expression (mean ± sem)” value ([1]; 6 hours treatment) of the same molecule?
A: The value was 101 ± 6 (4).

Q: And the “HEY1 mRNA expression (mean ± sem)” value ([1]; 6 hours treatment)?
A: Its value is 120 ± 9 (4).

Q: What about the “NFKB1 mRNA expression (mean ± sem)” value ([1]; 6 hours treatment) of the same molecule?
A: Its value is 112 ± 7 (4).

Q: And the “NFKB2 mRNA expression (mean ± sem)” value ([1]; 6 hours treatment)?
A: Its value is 103 ± 7 (4).

Q: And the “NOTCH 1 mRNA expression (mean ± sem)” value ([1]; 6 hours treatment)?
A: The value was 94 ± 7 (4).

Q: What about the “NOTCH 2 mRNA expression (mean ± sem)” value ([1]; 6 hours treatment) of the same molecule?
A: The value was 95 ± 16 (4).

Q: And the “NOTCH 3 mRNA expression (mean ± sem)” value ([1]; 6 hours treatment)?
A: The value was 95 ± 7 (4).

Q: And the “RBPJ mRNA expression (mean ± sem)” value ([1]; 6 hours treatment)?
A: The value was “trend of increased expression”.

Q: What about the “RBPJ mRNA expression (mean ± sem)” value ([1]; 6 hours treatment, listed as #C) of the same molecule?
A: Its value is 144 ± 12 (4).

Q: What about the “expression of all tested Notch signaling genes” value ([1]; 6 hours, 24 hours and 48 hours) of the same molecule?
A: The value was “did not significantly inhibit”.

Q: And the “NOTCH 4 mRNA expression” value ([1]; 24 hours treatment (cell spans control and #C))?
A: The value was “Undetected”.

Q: What about the “HER2 mRNA expression (mean ± sem)” value ([1]; 24 hours treatment) of the same molecule?
A: The value was 100 ± 11.

Q: And the “HES1 mRNA expression (mean ± sem)” value ([1]; 24 hours treatment)?
A: The value was 102 ± 18.

Q: What about the “HEY1 mRNA expression (mean ± sem)” value ([1]; 24 hours treatment) of the same molecule?
A: The value was 121 ± 10.

Q: What about the “NFKB1 mRNA expression (mean ± sem)” value ([1]; 24 hours treatment) of the same molecule?
A: Its value is 106 ± 11.

Q: And the “NFKB2 mRNA expression (mean ± sem)” value ([1]; 24 hours treatment)?
A: The value was 85 ± 28 (3).

Q: And the “NOTCH 1 mRNA expression (mean ± sem)” value ([1]; 24 hours treatment)?
A: Its value is 89 ± 10 (3).

Q: What about the “NOTCH 2 mRNA expression (mean ± sem)” value ([1]; 24 hours treatment) of the same molecule?
A: The value was 103 ± 27.

Q: And the “NOTCH 3 mRNA expression (mean ± sem)” value ([1]; 24 hours treatment)?
A: The value was 105 ± 14.

Q: And the “RBPJ mRNA expression (mean ± sem)” value ([1]; 24 hours treatment)?
A: Its value is 119 ± 37.

Q: What about the “HER2 mRNA expression (mean ± sem)” value ([1]; 48 hours treatment) of the same molecule?
A: Its value is 106 ± 23.

Q: What about the “HES1 mRNA expression (mean ± sem)” value ([1]; 48 hours treatment) of the same molecule?
A: Its value is 115 ± 9 (4).

Q: And the “HEY1 mRNA expression (mean ± sem)” value ([1]; 48 hours treatment)?
A: The value was 115 ± 11.

Q: And the “NFKB1 mRNA expression (mean ± sem)” value ([1]; 48 hours treatment)?
A: The value was 109 ± 12.

Q: What about the “NFKB2 mRNA expression (mean ± sem)” value ([1]; 48 hours treatment) of the same molecule?
A: Its value is 97 ± 14 (4).

Q: And the “NOTCH 1 mRNA expression (mean ± sem)” value ([1]; 48 hours treatment)?
A: Its value is 90 ± 9 (3).

Q: And the “NOTCH 2 mRNA expression (mean ± sem)” value ([1]; 48 hours treatment)?
A: Its value is 94 ± 40 (3).

Q: And the “NOTCH 3 mRNA expression (mean ± sem)” value ([1]; 48 hours treatment)?
A: Its value is 81 ± 23 (4).

Q: And the “RBPJ mRNA expression (mean ± sem)” value ([1]; 48 hours treatment)?
A: Its value is 97 ± 7 (4).
